In patent publication US20180208563A1, “THERMOD[…] CRYSTAL MODIFICATION OF 2-CHLORO-3-(METHYLSULFANYL)-N-(1-METHYL-1H-TETRAZOL-5-YL)-4-(TRIFLUOROMETHYL)BENZAMIDE” (BAYER CROPSCIENCE AKTIENGESELLSCHAFT, priority 2015, published 2018):

Tests used:
[1] = Testing in practice of suspension formulations (crystal growth); format: physicochemical; conditions: suspension formulations with finely ground solid benzamide; spontaneously or over a longer period
Source text: The benzamide known for example from WO 2012/028579 A1 (example No. 4-638 in table 4 therein) has herbicidal properties and is suitable for the production of crop protection compositions which can be employed for weed control. However, it has been shown that the benzamide preparable according to the disclosure of WO 2012/028579 A1 is not suitable for the production of user-friendly administration forms. User-friendly administration forms are, for example, suspension formulations in which the benzamide is present finely ground in solid form. […] The crystal growth can occur spontaneously or over a longer period and cannot be predicted.

[2] = Stability tests: storage of an oil dispersion; format: physicochemical; conditions: after several weeks of storage, compared to an oil dispersion of the benzamide prepared according to WO 2012/028579 A1

Structure (SMILES) | crystal growth, clumping and precipitation in suspension formulations [1] | signs of clumping and precipitation on storage [2]
CSc1c(C(F)(F)F)ccc(C(=O)Nc2nnnn2C)c1Cl [2-chloro-3-(methylsulfanyl)-N-(1-methyl-1H-tetrazol-5-yl)-4-(trifluoromethyl)benzamide] | crystal growth in suspension formulations and consequently to clumping and precipitation | –
CSc1c(C(F)(F)F)ccc(C(=O)Nc2nnnn2C)c1Cl [crystal modification II, 2-chloro-3-(methylsulfanyl)-N-(1-methyl-1H-tetrazol-5-yl)-4-(trifluoromethyl)benzamide] | – | no signs of clumping and precipitation
